Source: ChEMBL document CHEMBL1148026, “Oxadiazole mannich bases: synthesis and antimycobacterial activity” (Bioorg Med Chem Lett, 2007)
Converted amounts (≈) assume the structure as drawn.

Tests used:
[1] = test system: Mycobacterium tuberculosis; assay: Antimycobacterial activity against Mycobacterium tuberculosis H37Rv by agar dilution method using double dilution technique; assay type: functional
Vero = assay: Toxicity against Vero cells at 62.5 ug/ml after 72 hrs by MTT assay; assay type: cell-based; conditions: chlorocebus sabaeus

Row | Structure (SMILES) | MIC [1] [µM] | Activity (Vero)
1 | O=S(=O)(c1ccc(NC(c2ccccc2)n2nc(-c3ccc(Nc4ccccc4)cc3)oc2=S)cc1)c1ccc(NC(c2ccccc2)n2nc(-c3ccc(Nc4ccccc4)cc3)oc2=S)cc1 (centres undefined) | 1.65 (≈ 1.59 µg/mL) | Non-toxic
2 | O=S(=O)(c1ccc(NC(Cc2ccco2)n2nc(-c3ccc(Nc4ccccc4)cc3)oc2=S)cc1)c1ccc(NC(Cc2ccco2)n2nc(-c3ccc(Nc4ccccc4)cc3)oc2=S)cc1 (centres undefined) | 0.66 (≈ 0.641 µg/mL) | Non-toxic
3 | O=S(=O)(c1ccc(NC(Cc2ccco2)n2nc(-c3ccccc3)oc2=S)cc1)c1ccc(NC(Cc2ccco2)n2nc(-c3ccccc3)oc2=S)cc1 (centres undefined) | 0.94 (≈ 0.742 µg/mL) | Non-toxic
4 | O=S(=O)(c1ccc(NC(Cc2ccco2)n2nc(COc3ccc4ccccc4c3)oc2=S)cc1)c1ccc(NC(Cc2ccco2)n2nc(COc3ccc4ccccc4c3)oc2=S)cc1 (centres undefined) | 0.1 (≈ 0.0949 µg/mL) | Non-toxic
5 | O=S(=O)(c1ccc(NC(c2ccccc2)n2nc(COc3ccccc3)oc2=S)cc1)c1ccc(NC(c2ccccc2)n2nc(COc3ccccc3)oc2=S)cc1 (centres undefined) | 0.98 (≈ 0.824 µg/mL) | Non-toxic
6 | O=S(=O)(c1ccc(NC(c2ccccc2)n2nc(COc3ccc4ccccc4c3)oc2=S)cc1)c1ccc(NC(c2ccccc2)n2nc(COc3ccc4ccccc4c3)oc2=S)cc1 (centres undefined) | 0.42 (≈ 0.395 µg/mL) | Non-toxic
7 | O=S(=O)(c1ccc(NC(Cc2ccco2)n2nc(COc3cccc4ccccc34)oc2=S)cc1)c1ccc(NC(Cc2ccco2)n2nc(COc3cccc4ccccc34)oc2=S)cc1 (centres undefined) | 0.72 (≈ 0.683 µg/mL) | Non-toxic
8 | O=[N+]([O-])c1ccc(-c2nn(C(Nc3ccc(S(=O)(=O)c4ccc(NC(c5ccccc5)n5nc(-c6ccc([N+](=O)[O-])cc6)oc5=S)cc4)cc3)c3ccccc3)c(=S)o2)cc1 (centres undefined) | 1.94 (≈ 1.69 µg/mL) | Non-toxic
9 | O=[N+]([O-])c1ccc(-c2nn(C(Cc3ccco3)Nc3ccc(S(=O)(=O)c4ccc(NC(Cc5ccco5)n5nc(-c6ccc([N+](=O)[O-])cc6)oc5=S)cc4)cc3)c(=S)o2)cc1 (centres undefined) | 0.42 (≈ 0.369 µg/mL) | Non-toxic
10 | O=S(=O)(c1ccc(NC(c2ccccc2)n2nc(-c3ccccc3)oc2=S)cc1)c1ccc(NC(c2ccccc2)n2nc(-c3ccccc3)oc2=S)cc1 (centres undefined) | 1.72 (≈ 1.34 µg/mL) | Non-toxic
11 | O=S(=O)(c1ccc(NC(Cc2ccco2)n2nc(COc3ccccc3)oc2=S)cc1)c1ccc(NC(Cc2ccco2)n2nc(COc3ccccc3)oc2=S)cc1 (centres undefined) | 0.14 (≈ 0.119 µg/mL) | Non-toxic
12 | O=S(=O)(c1ccc(NC(c2ccccc2)n2nc(COc3cccc4ccccc34)oc2=S)cc1)c1ccc(NC(c2ccccc2)n2nc(COc3cccc4ccccc34)oc2=S)cc1 (centres undefined) | 0.96 (≈ 0.903 µg/mL) | Non-toxic
13 | O=S(=O)(c1ccc(NC(c2ccccc2)n2nc(Cc3ccccc3)oc2=S)cc1)c1ccc(NC(c2ccccc2)n2nc(Cc3ccccc3)oc2=S)cc1 (centres undefined) | 1.29 (≈ 1.04 µg/mL) | Non-toxic
14 | O=S(=O)(c1ccc(NC(Cc2ccco2)n2nc(Cc3ccccc3)oc2=S)cc1)c1ccc(NC(Cc2ccco2)n2nc(Cc3ccccc3)oc2=S)cc1 (centres undefined) | 0.24 (≈ 0.196 µg/mL) | Non-toxic
15 | NNC(=O)c1ccncc1 [ISONIAZID] | 0.73 (≈ 0.1 µg/mL) | –
